According to US20040242662A1 (priority 2000, published 2004):

What was measured:
Phytophthora infestans = type: in vivo; settings: tomato, protective; application rate 50 g/ha; evaluation three days after inoculation; 100% means no infection
[1] = logP determination by HPLC (EEC Directive 79/831 Annexe V.A8); type: physicochemical; settings: gradient method, acetonitrile/0.1% aqueous phosphoric acid
Method: The logP values were determined in accordance with EEC Directive 79/831 Annexe V.A8 by HPLC (gradient method, acetonitrile/0.1% aqueous phosphoric acid).

Structure (SMILES) | Efficacy in % (Phytophthora infestans) [%] | chromatographic logP [1] | melting point [°C]
Cc1c(Cl)nc(Br)n1S(=O)(=O)c1cccnc1Cl [drawing 18] | 94 |  | 
Cc1c(Cl)nc(Br)n1S(=O)(=O)c1cccnc1Cl [Example 1, 3-[(2-bromo-4-chloro-5-methyl-1H-imidazol-1-yl)-sulfonyl]-2-chloropyridine] |  | 2.9 | 144 to 146
Cc1c(Br)nc(Br)n1S(=O)(=O)c1cccnc1Cl [drawing 19] | 94 |  | 
Cc1c(Br)nc(Br)n1S(=O)(=O)c1cccnc1Cl [Example 2] |  | 2.97 | 154 to 158
